Laboratory results published in patent US9084778B2, “Topical compositions containing a retinoid of the oil-in-water emulsion type” (GALDERMA RESEARCH & DEVELOPMENT, priority 2012, dated 2015).

Legend:
[1] = "Single time" cutaneous penetration study ex vivo (Franz cells, 16 h); format: in vitro ADME; settings: ex vivo human skin, the 2 formulae evaluated
Procedure: Two types of cutaneous penetration studies were carried out ex vivo on human skin. In these studies compound A corresponds to 3″-tert-butyl-4′-(2-hydroxy-ethoxy)-4″-pyrrolidin-1-yl-[1,1′;3′,1″]-terphenyl-4-carboxylic acid.
“Single Time” Cutaneous Penetration Study:
In this study the Formula is applied for 16 hours to the surface of the skin. After the application COMPOUND A is quantified in the different compartments of the skin: stratum corneum, epidermis, dermis and receiving liquid according to the validated bioanalysis method.
The bioanalysis was conducted by mass spectrometry in tandem by positive electrospray ionisation using a Xevo device (Waters). The limit of quantification for compound A is 1 ng/mL.
The conditions of LC/MS/MS developed enabled up to 0.1% of the doe applied in each of the compartments to be detected (unabsorbed dose, stratum, epidermis, dermis and receiving liquid).
In this type of “single point” study the parameters considered are: • a. The distribution profile in the different compartments (qualitative data) • b. The penetration in the epidermis+dermis compartment (numerical data) FIG. 1

[2] = Stability of compound A in its principal solvents; format: physicochemical
Text: (2) Stability of compound A in its principal solvents:
(§1) The limits fixed for high stability are 95%-105% as a percentage relative to TO.

[3] = Maximum solubility in fat phase excipients determined by HPLC; format: physicochemical
Text: In order to obtain an oil in water emulsion containing a compound with the general formula (I) in the fat phase, pre-formulation studies have been conducted to provide evidence of the excipients allowing good solubilisation as well as good stability of the active ingredient.
(1) List of fat phase excipients in which the maximum solubility has been determined by HPLC:
The limit, below which the compounds of general formula (1) are considered non-solubilized, is 0.1% by weight.

[4] = Stability of compound A in mixtures of excipients (solvent/surfactants) determined by HPLC; format: physicochemical
Text: (3) Stability of compound A in mixtures of excipients (solvent/surfactants) determined by HPLC:
Studies of stability of compound A solubilised in oils (in which it is stable) in the presence of surfactants have been conducted:
as §1

CC(C)(C)c1cc(-c2cc(-c3ccc(C(=O)O)cc3)ccc2OCCO)ccc1N1CCCC1 [Compound A, 3″-tert-butyl-4′-(2-hydroxy-ethoxy)-4″-pyrrolidin-1-yl-[1,1′;3′,1″]-terphenyl-4-carboxylic acid]
<0.1%: Maximum solubility ([3]; in Crodamol IPM (Isopropyl myristate))
Stable/Ok 6 Months: Stability results ([2]; COMPOUND A 0.005% in Miglyol 812N (Caprylic/capric triglycerides), 40° C.) | Stability results ([2]; COMPOUND A 0.005% in Sweet almond oil, 40° C.) | Stability results ([2]; COMPOUND A 0.05% in Arlacel 83V Pharma (Sorbitan Sesquioleate), 40° C.) | Stability results ([2]; COMPOUND A 0.05% in Arlamol E (PPG-15 stearyl ether), 40° C.) | Stability results ([2]; COMPOUND A 0.05% in Capryol 90 (Propylene glycol monocaprylate), 40° C.) | Stability results ([2]; COMPOUND A 0.05% in Crodamol DA (Diisopropyl Adipate), 40° C.) | Stability results ([2]; COMPOUND A 0.05% in Labrafil M1944CS (Apricot Kernel Oil PEG-6 Ester), 40° C.) | Stability results ([2]; COMPOUND A 0.05% in Lauroglycol FCC (Propylene glycol laurate), 40° C.) | Stability results ([2]; COMPOUND A 0.05% in Phenoxetol (Phenoxyethanol), 40° C.)
2.388%: Maximum solubility ([3]; in Benzyl alcohol (Benzyl Alcohol))
0.400%: Maximum solubility ([3]; in Arlasolve DMI (Dimethyl Isosorbide))
1.957%: Maximum solubility ([3]; in Phenoxetol (Phenoxyethanol))
Unstable: Stability results ([2]; COMPOUND A 0.05% in Arlasolve DMI (Dimethyl Isosorbide)) | Stability results ([2]; COMPOUND A 0.05% in Benzyl Alcohol) | Stability results ([2]; COMPOUND A 0.05% in Brij 30 (Laureth-4)) | Stability results ([2]; COMPOUND A 0.05% in Dipropylene Glycol Care (Dipropylene glycol)) | Stability results ([2]; COMPOUND A 0.05% in Eutanol G (Octyldodecanol)) | Stability results ([2]; COMPOUND A 0.05% in Marcol 152 (Parrafinum liquidum)) | Stability results ([2]; COMPOUND A 0.05% in Myritol PC (Propylene glycol dicaprylate/dicaprate)) | Stability results ([4]; COMPOUND A 0.05% in Arlacel 165/Lauroglycol FCC) | Stability results ([4]; COMPOUND A 0.05% in Cremophor EL/Labrafil M1944CS) | Stability results ([4]; COMPOUND A 0.05% in Cremophor EL/Lauroglycol FCC) | Stability results ([4]; COMPOUND A 0.05% in GlucateSS-Glucamate SSE-20/Arlamol E) | Stability results ([4]; COMPOUND A 0.05% in Simulsol M45/Crodamol DA) | Stability results ([4]; COMPOUND A 0.05% in Tween 80/Arlamol E) | Stability results ([4]; COMPOUND A 0.2% in Cremophor EL/Labrafil M1944CS) | Stability results ([4]; COMPOUND A 0.2% in Cremophor RH40/Crodamol DA) | Stability results ([4]; COMPOUND A 0.2% in Simulsol M45/Crodamol DA) | Stability results ([4]; COMPOUND A 0.2% in Tween 80/Hexylene glycol) | Stability results ([4]; COMPOUND A 0.2% in Tween 80/Lauroglycol FCC)
Stable/Ok 3 Months: Stability results ([4]; COMPOUND A 0.05% in Arlacel 165/Arlamol E, 40° C.) | Stability results ([4]; COMPOUND A 0.05% in Brij 721/Arlamol E, 40° C.) | Stability results ([4]; COMPOUND A 0.05% in Brij 721/Lauroglycol FCC, 40° C.) | Stability results ([4]; COMPOUND A 0.05% in Eumulgin B2/Arlamol E, 40° C.) | Stability results ([4]; COMPOUND A 0.05% in GlucateSS-Glucamate SSE-20/Lauroglycol FCC, 40° C.)
0.802%: Maximum solubility ([3]; in Capryol 90 (Propylene glycol monocaprylate))
0.482%: Maximum solubility ([3]; in Hydrolite 5P (Pentylene glycol))
not detected: Compound A in the receiving liquid [1]
2.03%: Maximum solubility ([3]; in Brij 30 (Laureth-4))
